# Assay results from patent US20120276208A1, “ACUTE COGNITIVE AND MOOD EFFECTS OF PLANT POLYSACCHARIDES IN ADULT HUMAN SUBJECTS” (UNIVERSITY OF SOUTH AUSTRALIA, priority 2011, published 2012).
# Columns and labels:
# [1] = tested on: healthy middle-aged men and women; test: Cognitive Demand Battery: Serial Sevens subtraction task; assay type: in vivo, human; settings: 4 g oral; at 20 min of battery; vs placebo
# Method: Procedure: Each participant attended the research facility on a single day for a period of 3.5 hours during which they completed 2 testing sessions, 1 baseline test and 1 post-treatment test. All testing took place between 08:00-12:00 and 13:00-18:00. On testing days, participants abstained from consuming any stimulants (i.e., tea, coffee, other caffeine containing products) for 2 hours before their visit. All volunteers were fasted for 2 hours before their visit. Each study day comprised of a practice module, a pre-treatment baseline testing session on the mood and cognitive measures, this was immediately followed by a pre-treatment blood glucose measurement, and administration of treatment. Participants were allocated, using a random number generator randomization code, to one of three treatment conditions: sucrose (icing sugar), placebo (rice flour) and plant saccharides (Ambrotose®Complex). Given the different densities of the three supplement conditions, each treatment was weighed and measured with scoop amounts to provide equated 4 g doses. The supplement was delivered to each participant on a tablespoon with 100 ml of water. […] All data were analyzed using SPSS 17 statistical package as “change from pre dose baseline scores', using Analysis of Variance (ANOVA). […]
# [2] = tested on: healthy middle-aged men and women; test: Rey Auditory-Verbal Learning Test (RAVLT), learning and memory; assay type: in vivo, human; settings: 4 g oral single dose; mean (SD)
# Method: Procedure: Each participant attended the research facility on a single day for a period of 3.5 hours during which they completed 2 testing sessions, 1 baseline test and 1 post-treatment test. All testing took place between 08:00-12:00 and 13:00-18:00. On testing days, participants abstained from consuming any stimulants (i.e., tea, coffee, other caffeine containing products) for 2 hours before their visit. All volunteers were fasted for 2 hours before their visit. Each study day comprised of a practice module, a pre-treatment baseline testing session on the mood and cognitive measures, this was immediately followed by a pre-treatment blood glucose measurement, and administration of treatment. Participants were allocated, using a random number generator randomization code, to one of three treatment conditions: sucrose (icing sugar), placebo (rice flour) and plant saccharides (Ambrotose®Complex). Given the different densities of the three supplement conditions, each treatment was weighed and measured with scoop amounts to provide equated 4 g doses. The supplement was delivered to each participant on a tablespoon with 100 ml of water. Each participant was instructed by the inventors to carefully consume the powder, without breathing in or out over it, by putting it in their mouth and washing it down with the water provided within 5 minutes. Additional water was provided on request. Participants were then instructed to rest for 30 minutes to allow for absorption. Following the 30 minute absorption time, a finger-capillary blood glucose measurement was taken. The post treatment testing session then commenced with alternate forms of the RAVLT and Cognitive demand battery. Following completion of the testing session, a final blood glucose measurement was taken. […] Learning and Memory: The Rey Auditory-Verbal Learning Test (RAVLT) was used to assess immediate recall, delayed recall, learning and recognition memory. The examiner reads aloud 15 nouns (list A) over five trials and after each trial, participants are asked to recall, in any order, as many of the 15 words as possible. Scores for the 5 trials are summed to produce a measure of immediate recall, the difference between trial 5 and 1 is used as a measure of learning. After a sixth trial consisting of 15 different words (list B) participants are again required to recall the words that were presented in list A (trial 7), and then again after an interval of 60 minutes (trial 8). The scores from trials 7 and 8 are used to produce a measure of delayed recall, the difference between the words recalled in trials 8 and 7 is used as a measure of forgetting, the difference between trial 7 and trial 5 is used as a score of interference. After trial 8, participants are presented with a sheet of 50 words containing the words from lists A and B among 20 distracter words. Participants are asked to recognize the words from lists A and B and indicate the list they came from. Each word correctly identified is awarded one point producing a measure of recognition. Statistical Analysis: The primary outcomes were memory performance, mood and performance on the Cognitive Demand Battery (CDB) and the subjective ratings of mental fatigue. All data were analyzed using SPSS 17 statistical package as “change from pre dose baseline scores', using Analysis of Variance (ANOVA). To test for chance baseline differences which may have skewed change-from-baseline scores, prior to the primary statistical analysis, one-way ANOVA's with Bonferroni correction, were run all on all baseline demographics, general mood and well-being measures, and all pre-dose baseline measures to determine any potential covariates in outcomes.
structure (smiles),measurement,setting,value
"OC[C@H]1O[C@@](CO)(O[C@H]2O[C@H](CO)[C@@H](O)[C@H](O)[C@H]2O)[C@@H](O)[C@@H]1O [Sucrose, sucrose]","Serial 7s number of correct answers, pairwise comparison",[1],making significantly more correct responses than the placebo group (p=0.04)
same,"RAVLT Forgetting (trial 8-trial7), post-dose change from baseline score",[2],−1.69 (3.06)
same,"RAVLT Interference (trial 7-trial 5), post-dose change from baseline score",[2],−1.34 (2.18)
same,"RAVLT Learning (trial 5-trial1), post-dose change from baseline score",[2],0.07 (2.78)
same,"RAVLT Recog A, post-dose change from baseline score",[2],−2.38 (2.46)
same,"RAVLT Recog B, post-dose change from baseline score",[2],−3.38 (3.55)
same,"RAVLT Sum Immediate Recall, post-dose change from baseline score",[2],−1.88 (5.83)
same,"RAVLT Sum Recognition, post-dose change from baseline score",[2],−5.76 (4.91)
same,"RAVLT Sum delayed recall, post-dose change from baseline score",[2],−4.76 (4.18)
same,"RAVLT Trial 1, post-dose change from baseline score",[2],−0.26 (2.23)
same,"RAVLT Trial 2, post-dose change from baseline score",[2],−0.57 (2.13)
same,"RAVLT Trial 3, post-dose change from baseline score",[2],−0.42 (1.83)
same,"RAVLT Trial4, post-dose change from baseline score",[2],−0.42 (1.72)
same,"RAVLT Trial 5, post-dose change from baseline score",[2],−0.19 (1.72)
same,"RAVLT Trial 6 (List B), post-dose change from baseline score",[2],−0.84 (2.16)
same,"RAVLT Trial 7, post-dose change from baseline score",[2],−1.53 (2.37)
same,"RAVLT Trial 8, post-dose change from baseline score",[2],−3.23 (2.80)
